According to the NIST ThermoML archive (doi:10.1016/j.fluid.2006.05.032):
± gives the expanded uncertainty stated by the source.

Assay: xn = mol fraction of the nth substance listed
Details: Liquid, Vibrating tube method

Cc1ccccc1 [toluene] + CCCO
mass density [kg/m3]
Details	x2 = 0	x2 = 0.125	x2 = 0.25	x2 = 0.375	x2 = 0.5	x2 = 0.625	x2 = 0.75	x2 = 0.875
323.15 K, 35000 kPa	866 ± 1	859.3 ± 1	853.3 ± 1	847.1 ± 1	840.6 ± 1	833.4 ± 1	825.6 ± 1.1	816.4 ± 1.1
323.15 K, 40000 kPa	869.4 ± 1	862.8 ± 1	856.5 ± 1	850.3 ± 1	843.9 ± 1.1	836.7 ± 1.1	829 ± 1.1	819.8 ± 1.1
323.15 K, 45000 kPa	872.5 ± 1	865.9 ± 1	859.8 ± 1.1	853.6 ± 1.1	847.1 ± 1.1	840 ± 1.1	832.2 ± 1.1	822.9 ± 1.1
323.15 K, 50000 kPa	875.7 ± 1	869.2 ± 1.1	863 ± 1.1	856.8 ± 1.1	850.3 ± 1.1	843.1 ± 1.1	835.3 ± 1.1	826 ± 1.1
323.15 K, 55000 kPa	878.7 ± 1.1	872.2 ± 1.1	866 ± 1.1	859.8 ± 1.1	853.3 ± 1.1	846.1 ± 1.1	838.3 ± 1.1	829 ± 1.1
323.15 K, 60000 kPa	881.7 ± 1.1	875.1 ± 1.1	869 ± 1.1	862.7 ± 1.1	856.2 ± 1.1	848.9 ± 1.1	841.1 ± 1.1	831.9 ± 1.1
323.15 K, 65000 kPa	884.6 ± 1.1	878.1 ± 1.1	871.9 ± 1.1	865.6 ± 1.1	859.1 ± 1.1	851.8 ± 1.1	844 ± 1.1	834.6 ± 1.1
333.15 K, 100 kPa	828.8 ± 1	822 ± 1	815.6 ± 1	809.5 ± 1	803.2 ± 1	796.3 ± 1	788.7 ± 1	779.8 ± 1
333.15 K, 5000 kPa	833.5 ± 1	826.8 ± 1	820.5 ± 1	814.3 ± 1	808 ± 1	801.1 ± 1	793.4 ± 1	784.4 ± 1
333.15 K, 10000 kPa	838.2 ± 1	831.4 ± 1	825 ± 1	818.9 ± 1	812.6 ± 1	805.8 ± 1	798.1 ± 1	789.1 ± 1
333.15 K, 15000 kPa	842.6 ± 1	835.7 ± 1	829.4 ± 1	823.3 ± 1	817 ± 1	810.1 ± 1	802.4 ± 1	793.4 ± 1
333.15 K, 20000 kPa	846.6 ± 1	839.8 ± 1	833.6 ± 1	827.4 ± 1	821.1 ± 1	814.2 ± 1	806.6 ± 1	797.5 ± 1
333.15 K, 25000 kPa	850.5 ± 1	843.8 ± 1	837.6 ± 1	831.4 ± 1	825 ± 1	818.2 ± 1	810.5 ± 1	801.4 ± 1
333.15 K, 30000 kPa	854.3 ± 1	847.6 ± 1	841.4 ± 1	835.2 ± 1	828.8 ± 1	821.9 ± 1	814.1 ± 1	805 ± 1.1
333.15 K, 35000 kPa	857.9 ± 1	851.3 ± 1	845 ± 1	838.9 ± 1	832.5 ± 1.1	825.6 ± 1.1	817.8 ± 1.1	808.6 ± 1.1
333.15 K, 40000 kPa	861.4 ± 1	854.8 ± 1	848.6 ± 1.1	842.4 ± 1.1	836 ± 1.1	829.1 ± 1.1	821.2 ± 1.1	812 ± 1.1
333.15 K, 45000 kPa	864.8 ± 1	858.2 ± 1.1	852 ± 1.1	845.8 ± 1.1	839.4 ± 1.1	832.4 ± 1.1	824.6 ± 1.1	815.4 ± 1.1
333.15 K, 50000 kPa	868.1 ± 1.1	861.5 ± 1.1	855.2 ± 1.1	849 ± 1.1	842.7 ± 1.1	835.6 ± 1.1	827.8 ± 1.1	818.6 ± 1.1
333.15 K, 55000 kPa	871.4 ± 1.1	864.6 ± 1.1	858.4 ± 1.1	852.2 ± 1.1	845.8 ± 1.1	838.8 ± 1.1	831 ± 1.1	821.9 ± 1.1
333.15 K, 60000 kPa	874.5 ± 1.1	867.8 ± 1.1	861.4 ± 1.1	855.3 ± 1.1	848.9 ± 1.1	841.8 ± 1.1	834 ± 1.1	824.8 ± 1.1
333.15 K, 65000 kPa	877.5 ± 1.1	870.7 ± 1.1	864.5 ± 1.1	858.3 ± 1.1	851.9 ± 1.1	844.8 ± 1.1	836.9 ± 1.1	827.7 ± 1.1
343.15 K, 100 kPa	819.4 ± 1	812.2 ± 1	805.5 ± 1	799.4 ± 1	793.3 ± 1	786.5 ± 1	779.1 ± 1	770.7 ± 1
343.15 K, 5000 kPa	824.5 ± 1	817.3 ± 1	810.8 ± 1	804.6 ± 1	798.4 ± 1	791.7 ± 1	784.2 ± 1	775.8 ± 1
343.15 K, 10000 kPa	829.3 ± 1	822.3 ± 1	815.8 ± 1	809.6 ± 1	803.4 ± 1	796.6 ± 1	789.1 ± 1	780.6 ± 1
343.15 K, 15000 kPa	833.9 ± 1	826.9 ± 1	820.4 ± 1	814.3 ± 1	808.1 ± 1	801.3 ± 1	793.8 ± 1	785.1 ± 1
343.15 K, 20000 kPa	838.1 ± 1	831.3 ± 1	824.9 ± 1	818.7 ± 1	812.4 ± 1	805.7 ± 1	798.1 ± 1	789.5 ± 1
343.15 K, 25000 kPa	842.3 ± 1	835.5 ± 1	829.1 ± 1	822.9 ± 1	816.6 ± 1	809.8 ± 1	802.2 ± 1	793.5 ± 1
343.15 K, 30000 kPa	846.2 ± 1	839.5 ± 1	833.1 ± 1	827 ± 1	820.7 ± 1	813.9 ± 1	806.2 ± 1.1	797.4 ± 1.1
343.15 K, 35000 kPa	850.1 ± 1	843.2 ± 1	837 ± 1	830.7 ± 1.1	824.5 ± 1.1	817.6 ± 1.1	809.9 ± 1.1	801.1 ± 1.1
343.15 K, 40000 kPa	853.7 ± 1	847 ± 1.1	840.6 ± 1.1	834.4 ± 1.1	828.2 ± 1.1	821.4 ± 1.1	813.5 ± 1.1	804.6 ± 1.1
343.15 K, 45000 kPa	857.4 ± 1.1	850.4 ± 1.1	844.3 ± 1.1	838 ± 1.1	831.8 ± 1.1	824.9 ± 1.1	817.2 ± 1.1	808.2 ± 1.1
343.15 K, 50000 kPa	860.8 ± 1.1	853.9 ± 1.1	847.7 ± 1.1	841.4 ± 1.1	835.2 ± 1.1	828.2 ± 1.1	820.5 ± 1.1	811.4 ± 1.1
343.15 K, 55000 kPa	864.2 ± 1.1	857.1 ± 1.1	851 ± 1.1	844.8 ± 1.1	838.5 ± 1.1	831.5 ± 1.1	823.7 ± 1.1	814.7 ± 1.1
343.15 K, 60000 kPa	867.4 ± 1.1	860.5 ± 1.1	854.3 ± 1.1	848 ± 1.1	841.8 ± 1.1	834.8 ± 1.1	826.9 ± 1.1	817.7 ± 1.1
343.15 K, 65000 kPa	870.3 ± 1.1	863.6 ± 1.1	857.4 ± 1.1	851.1 ± 1.1	844.9 ± 1.1	837.8 ± 1.1	829.9 ± 1.1	820.7 ± 1.1
353.15 K, 100 kPa	809.7 ± 1	802.7 ± 1	795.9 ± 1	789.9 ± 1	783.8 ± 1	777 ± 1	769 ± 1	760.6 ± 1
353.15 K, 5000 kPa	815.1 ± 1	808 ± 1	801.4 ± 1	795.3 ± 1	789.2 ± 1	782.3 ± 1	774.4 ± 1	766.1 ± 1
353.15 K, 10000 kPa	820.3 ± 1	813.3 ± 1	806.7 ± 1	800.6 ± 1	794.6 ± 1	787.7 ± 1	779.6 ± 1	771.2 ± 1
353.15 K, 15000 kPa	825.3 ± 1	818.2 ± 1	811.6 ± 1	805.5 ± 1	799.5 ± 1	792.6 ± 1	784.6 ± 1	776.2 ± 1
353.15 K, 20000 kPa	829.9 ± 1	822.9 ± 1	816.3 ± 1	810.2 ± 1	804.2 ± 1	797.3 ± 1	789.1 ± 1	780.7 ± 1
353.15 K, 25000 kPa	834 ± 1	827.3 ± 1	820.8 ± 1	814.7 ± 1	808.7 ± 1	801.7 ± 1	793.5 ± 1	784.9 ± 1.1
353.15 K, 30000 kPa	838.2 ± 1	831.6 ± 1	825 ± 1	818.9 ± 1	813 ± 1.1	805.9 ± 1.1	797.6 ± 1.1	789 ± 1.1
353.15 K, 35000 kPa	842.2 ± 1	835.6 ± 1	829.1 ± 1.1	822.9 ± 1.1	817 ± 1.1	809.9 ± 1.1	801.6 ± 1.1	792.9 ± 1.1
353.15 K, 40000 kPa	846.1 ± 1.1	839.4 ± 1.1	833 ± 1.1	826.8 ± 1.1	820.8 ± 1.1	813.7 ± 1.1	805.4 ± 1.1	796.6 ± 1.1
353.15 K, 45000 kPa	849.8 ± 1.1	843.2 ± 1.1	836.7 ± 1.1	830.6 ± 1.1	824.6 ± 1.1	817.4 ± 1.1	809.1 ± 1.1	800.3 ± 1.1
353.15 K, 50000 kPa	853.3 ± 1.1	846.8 ± 1.1	840.3 ± 1.1	834.2 ± 1.1	828.1 ± 1.1	820.9 ± 1.1	812.5 ± 1.1	803.7 ± 1.1
353.15 K, 55000 kPa	856.7 ± 1.1	850.2 ± 1.1	843.8 ± 1.1	837.6 ± 1.1	831.6 ± 1.1	824.4 ± 1.1	815.8 ± 1.1	807 ± 1.1
353.15 K, 60000 kPa	860.1 ± 1.1	853.6 ± 1.1	847.2 ± 1.1	840.9 ± 1.1	835 ± 1.1	827.7 ± 1.1	818.9 ± 1.1	810.3 ± 1.1
353.15 K, 65000 kPa	863.5 ± 1.1	856.8 ± 1.1	850.4 ± 1.1	844.2 ± 1.1	838.3 ± 1.1	830.9 ± 1.1	822.5 ± 1.1	813.6 ± 1.1
